{"source": "patent US20040029953A1", "about": "“Use of neuropeptide-y antagonists in treatment of alcoholism” (priority 2000, published 2004)", "key": {"[1]": {"test_system": "Long-Evans rats", "test": "Body weight, food intake and water intake in the home cage 24 hours after PVN infusion", "format": "in vivo, rat", "protocol": "FIG. 2 depicts the effects of NPY or NPY+D-NPY infused in the PVN on (A) body weight, (B) food intake, and (C) water intake measured in the home cage 24 hours after infusion. Drug doses were administered in random order. Data are plotted as Mean±SEM of 11 rats.\n(§1) Microinjection procedure. When ethanol and water intake stabilized again, microinjections were conducted once per week. Unanesthetized rats were placed in plastic containers (15×30×15 cm deep) to reduce movement. Obturators were removed and sterile 33-gauge injectors were inserted bilaterally to a depth 1 mm beyond the end of the guide cannulae. Drug solutions were infused bilaterally in distilled water vehicle in a total volume of 1 μl (0.5 μl/side) over a 1-min period. The injectors were left in place for an additional 30-sec period to allow drug diffusion. Precise flow of the solutions was verified before and after each injection to ensure compound delivery. Self-administration sessions began immediately after microinjections. Sterile obturators were reinserted at the end of the behavioral sessions. When co-administered, D-NPY or BIBP 3226 was infused 15-min prior to NPY. Vehicle injections were also performed to control for local pressure or osmotic changes caused by infusions. During one month prior to drug testing, the animals were handled and placed in the plastic tubs to minimize the effects of procedural changes on subsequent drug effects. The data from these sessions were not used in the analysis. After completion of the microinjection protocol, the rats were sacrificed and their brains were removed for histological verification of injection sites."}, "[2]": {"test_system": "Long-Evans rats", "test": "Ethanol (10% v/v) vs. water self-administration after infusion in the PVN, sucrose-faded rats with long-term ethanol history", "format": "in vivo, rat", "excerpt": "The effectiveness of known NPY receptor antagonists and NPY Y1-selective or Y5selective receptor antagonists in reducing craving for alcohol and reducing self-administration of alcohol can be tested in experimental animal models. Briefly, Long-Evans rats are conditioned to the laboratory environment and trained to self-administer concurrent ethanol (10% v/v) vs. water using a sucrose-fading procedure (H. H. Samson, Alcohol Clin. Exp. Res., 1986, 10:436442) as described by Hodge et al. (Alcohol, 1993, 10:191-196). Stereotaxic surgery is performed to implant injector guide cannulae aimed at the PVN. Microinjections of test compounds are given, with and without concomitant injection of NPY, into the PVN of the conditioned rats, which are then immediately given the opportunity to self-administer either water or ethanol (10% v/v). The volume of ethanol and water consumed are measured. Ethanol intake is converted from milliliters consumed to gram/kilogram body weight. Relative ethanol intake (preference) is calculated as […] of ethanol consumed divided by total fluid intake (ethanol+water […]). Drug dose effects are analyzed by one-way repeated measures analysis of variance (ANOVA). Post-hoc comparisons between drug doses and vehicle control are conducted using a paired t-test or Dunnett's t-test where appropriate (SigmaStat, Jandel, San Rafael, Calif.).\nAnimals. Thirty-six male Long-Evans rats (Harlan, Indianapolis, Ind.) were housed individually in Plexiglas cages. Access to water was restricted during the first day of behavioral training, but was continuously available for the remainder of the experiment. Food was always available in the home cage. In experimental chambers, ethanol (10% v/v) and water were available concurrently during daily (M-F) sessions. The animal colony room was maintained on a 12L:12D cycle with the lights on at 06:30. Experimental sessions were run during the light portion of the cycle. All experimental procedures were conducted under institutional and NIH guidelines.\nApparatus. Experimental sessions were conducted in Plexiglas chambers (27×37×21 cm) located in sound-attenuating cubicles (MED Associates, model ENV 016M, Lafayette, Ind.). Chambers were equipped with exhaust fans that masked external noise. The right wall of each chamber contained two 50-ml drinking bottles. Drug solutions were administered bilaterally through stainless steel injectors (Plastics One, Roanoke, Va.), which were connected via plastic tubing to two 1.0 μl syringes (Hamilton, Reno, Nev.). Syringes were mounted on a micro-infusion pump (Harvard Apparatus, Model 22, Natick, Mass.) set to deliver 0.5 μl/min/syringes.\nSelf-administration procedures. After 2 weeks of adaptation to laboratory housing conditions, fluid access was restricted to 1-h per day (for 2 days only) and two groups of rats (n=12 per group) were trained to drink from the bottles in the experimental chambers by overnight access to sucrose (10% w/v) vs. water during one overnight session. Daily 1 hour sessions were then conducted with sucrose (10% w/v) vs. water available concurrently. The location (i.e., left or right side of the chamber) of the sucrose and water solutions was alternated daily. When sucrose and water intake patterns stabilized, the rats were trained to self-administer concurrent ethanol (10% v/v) vs. water using a sucrose-fading procedure (H. H. Samson, Alcohol Clin. Exp. Res., 1986, 10:436-442) as previously described (e.g., Hodge et al., 1993). Briefly, ethanol was gradually added to the sucrose solution and then sucrose was faded out of the solution until rats were self-administering 10% ethanol vs. water. During the 2-month sucrose-fading procedure, the location of the ethanol/sucrose solution and water were alternated daily."}, "[3]": {"test_system": "Long-Evans rats", "test": "Ethanol vs. water intake after NPY infusion in the PVN, control rats with no long-term history of ethanol self-administration", "format": "in vivo, rat", "conditions": "for ETOH Intake / ETOH Preference (%) / water intake: mean±SEM", "excerpt": "Since NPY has potent effects on consummatory behavior, it is possible that NPY infusions in the PVN could alter ethanol intake via mechanisms that are unrelated to experience with the pharmacological effects of ethanol. […] Experimentally naive rats were allowed one week to adapt to the laboratory. They were then implanted with bilateral guide cannulae aimed at the PVN. Experimental sessions began one week after surgery to allow for recovery. During daily 60-min sessions, rats were placed in the self-administration chambers with concurrent ethanol (10% v/v) vs. water available. Baseline levels of ethanol and water intake were measured for one week. Microinjection procedures were then conducted.\nas §1\nData analysis and statistics. Volume of ethanol and water consumed was measured to the nearest 0.5 milliliter at the end of each 1-h session. Ethanol intake was converted from mls consumed to g/kg body weight. Relative ethanol intake (preference) was calculated as mls of ethanol consumed divided by total fluid intake (ethanol+water mils). Drug dose effects were analyzed by one-way repeated measures analysis of variance (ANOVA). Post-hoc comparisons between drug doses and vehicle control were conducted using paired t-test or Dunnett's t-test where appropriate (SigmaStat, Jandel, San Rafael, Calif.).\nData values are presented as mean±SEM."}, "[4]": {"test_system": "C57BL/6J mice", "test": "Operant ethanol-reinforced lever pressing (CONC FR1 FR1, 16-h sessions) after systemic administration", "format": "in vivo, mouse", "conditions": "for alcohol-seeking behavior (lever presses for alcohol) during the peak period: 4th-5th hour of access, vs saline", "excerpt": "Another animal model suitable for testing the effectiveness of the NPY antagonist uses alcohol-reinforced lever pressing behavior as described in Olive et al. Eur. J. Neurosci. 2000 Vol 12, 4131-4140. This model is particularly useful for identifying NPY antagonists that prevent or delay alcohol seeking behavior or prevent or reduce the occurence of relapse drinking in recovering alcoholics.\nMale C57BL/6J mice (N=8) were housed in standard Plexiglas cages (n=4/cage) with food (Harlan, Indianapolis, Ind.) and water always available. Mice were 20 weeks of age (body weight, 28-35 g) and drug naïve at the start of all testing. During operant self-administration training, food pellets (15 g per overnight session) were placed into the operant chambers and water was available under a fixed ratio-1 (FR-1) schedule of reinforcement.\nTest sessions were conducted in 8 Plexiglas operant chambers (Med Associates, Lafayette, Ind.) measuring 15.9×14×12.7 cm with stainless steel grid floors. Each chamber was housed in a sound-attenuating cubicle equipped with a house fan that provided ventilation and helped mask external noise. The left and right wall of each operant chamber was equipped with one ultra-sensitive stainless steel response lever and a liquid delivery system. Liquid solutions (ethanol or water) were maintained in 60 ml syringes mounted on a programmable pump (PH-100, Med Associates), which delivered 0.01 ml per activation into a stainless steel cup located to the left of the associated response lever. Each chamber also contained a house light (illuminated between 16:00-18:00 hr and 06:00-08:00 hr), as well as a stimulus light located above each lever (activated each time the lever was pressed). The chambers were interfaced (Med Associates) to an IBM-compatible PC, which was programmed to record all lever presses and liquid deliveries.\nMice were trained to lever press using reinforcement (10% sucrose w/v) of successive approximations. After initial behavioral shaping sessions, mice were run during 16 hr overnight (16:00-08:00 hrs) training sessions. During these training sessions, both response levers were active on a concurrent fixed ratio one (CONC FR1 FR1) schedule with 10% sucrose vs. water presented as the reinforcer. The position of each solution (left or right) was fixed for each animal but counterbalanced between animals to control for side preference. After 4 days, mice were trained to orally self-administer ethanol (10% v/v) vs. water using a sucrose substitution procedure, which we have adapted for use in the mouse (Olive et al., 2000 Eur. J. Neurosci. 12:4131-4140). Briefly, ethanol (2, 4, 8, or 10% v/v) was incrementally added to the sucrose (10% w/v) solution with 4 days at each increasing concentration. Then, sucrose (10, 5, 2% w/v) was incrementally faded out of the ethanol containing solution with 4 days at each decreasing concentration. After sucrose substitution training, all mice reliably responded on the CONC FR1 FR1 schedule of reinforcement with ethanol (10% v/v) vs. water presented as the reinforcers."}, "[5]": {"conditions": "D-NPY co-administered with NPY (10 fmol) in the PVN"}, "[6]": {"conditions": "NPY in the PVN, 24 hours after infusion, ethanol-experienced rats"}, "[7]": {"conditions": "NPY, sucrose-inexperienced animals"}, "[8]": {"conditions": "any dose of NPY tested, rats without long-term ethanol history"}}, "note": "“Also recorded” adds a separate entry of the source.", "data": [{"compound": "[D-Tyr^27,36,D-Thr^32] Neuropeptide Y (27-36) [D-NPY]", "values": [{"measurement": "body weight in the home cage", "setting": "[1]; D-NPY alone or in combination with NPY in the PVN", "result": "produced no effect on body weight"}, {"measurement": "ethanol intake", "setting": "[2]; D-NPY alone infused in the PVN", "result": "partial, but significant, decrease in ethanol intake"}, {"measurement": "NPY-induced decrease in water intake during sessions", "setting": "[2]; [5]", "result": "completely blocked the effects of NPY on ethanol and water intake; also recorded: significantly reversed NPY-induced decreases in water intake"}, {"measurement": "NPY-induced increase in ethanol intake", "setting": "[2]; [5]", "result": "completely blocked the effects of NPY on ethanol and water intake"}, {"measurement": "NPY-induced increase in ethanol preference", "setting": "[2]; D-NPY co-administered with NPY (10 fmol) in the PVN, P<0.09", "result": "did not significantly alter"}]}, {"compound": "Neuropeptide Y [NPY]", "values": [{"measurement": "body weight in the home cage", "setting": "[1]; [6]", "result": "no effect"}, {"measurement": "food consumption in the home cage", "setting": "[1]; [6]", "result": "no effect"}, {"measurement": "water intake in the home cage", "setting": "[1]; NPY in the PVN, 24 hours after infusion, ethanol-experienced rats, p<0.05", "result": "reduced water intake in the home cage; also recorded: small but significant reductions"}, {"measurement": "body weight in the home cage", "setting": "[1]; [7]", "result": "no effect"}, {"measurement": "food intake in the home cage", "setting": "[1]; [7]", "result": "no effect"}, {"measurement": "water intake in the home cage", "setting": "[1]; [7]", "result": "no effect"}, {"measurement": "ethanol intake", "setting": "[2]; NPY (10 fmol) in the PVN, BIBP 3226 group of 9 rats", "result": "significantly increased ethanol intake above control values"}, {"measurement": "water intake during experimental sessions", "setting": "[2]; NPY infused in the PVN", "result": "decreased water intake in a dose-dependent manner; also recorded: significantly decreased water intake"}, {"measurement": "ethanol intake", "setting": "[2]; NPY infused in the PVN, all doses, 1-hour session, vs vehicle control", "result": "increases alcohol self-administration; also recorded: significantly increased ethanol intake"}, {"measurement": "ethanol preference", "setting": "[2]; NPY infused in the PVN, dose-dependent, 1-hour session", "result": "significantly increased ethanol preference"}, {"measurement": "ethanol as share of fluid consumption during daily sessions", "setting": "[2]; two highest doses of NPY in the PVN", "result": "greater than 90%"}, {"measurement": "ETOH Intake", "setting": "[3]; NPY 10.0 fmol in the PVN", "result": "0.0330 ± 0.024", "unit": "g/kg/h"}, {"measurement": "ETOH Preference (%)", "setting": "[3]; NPY 10.0 fmol in the PVN", "result": "20.0 ± 13.333", "unit": "%"}, {"measurement": "water intake", "setting": "[3]; NPY 10.0 fmol in the PVN", "result": "0 ± 0", "unit": "mL/h"}, {"measurement": "ETOH Intake", "setting": "[3]; NPY 100.0 fmol in the PVN", "result": "0.0550 ± 0.03", "unit": "g/kg/h"}, {"measurement": "ETOH Preference (%)", "setting": "[3]; NPY 100.0 fmol in the PVN", "result": "30 ± 15.275", "unit": "%"}, {"measurement": "water intake", "setting": "[3]; NPY 100.0 fmol in the PVN", "result": "0.3 ± 0.133", "unit": "mL/h"}, {"measurement": "change in ethanol intake", "setting": "[3]; [8]", "result": "no dose of NPY tested produced a change; also recorded: no effect on ethanol intake"}, {"measurement": "change in ethanol preference", "setting": "[3]; [8]", "result": "no dose of NPY tested produced a change"}, {"measurement": "change in water intake", "setting": "[3]; [8]", "result": "no dose of NPY tested produced a change"}]}, {"compound": "CC1(C)CC(=O)C(C2C3=C(CC(C)(C)CC3=O)Oc3ccccc32)C(=O)C1", "note": "(centres unmarked) [L 152,804, 2-(3,3-dimethyl-1-oxo-4H-1H-xanthen-9-yl)-5,5-dimethylcyclohexane-1,3-dione]", "values": [{"measurement": "self-administration during the 13th hour of access", "setting": "[4]; 60 mg/kg", "result": "compensatory increase in self-administration"}, {"measurement": "alcohol-seeking behavior (lever presses for alcohol) during the peak period", "setting": "[4]; 60 mg/kg", "result": "significantly decreased alcohol-seeking behavior"}, {"measurement": "alcohol-seeking behavior (lever presses for alcohol) during the peak period", "setting": "[4]; 60 mg/kg, listed as LI 52,804", "result": "blocked this peak in alcohol-seeking behavior"}, {"measurement": "latency to the first response (delay to first alcohol lever press)", "setting": "[4]; dose-dependent, vs no injection and saline controls", "result": "significantly increased the latency to the first response; also recorded: dose dependently delayed the onset of responding"}, {"measurement": "response latency, statistical significance", "setting": "[4]; highest dose", "result": "did not achieve significance"}, {"measurement": "water intake during 16-h sessions", "setting": "[4]; systemic, 10, 30 and 60 mg/kg", "result": "no effect on water intake"}, {"measurement": "ethanol self-administration", "setting": "[4]; the two low doses (10, 30 mg/kg)", "result": "did not significantly alter ethanol self-administration"}]}]}
